Experiment [1] deals with senescent fibroblasts (SnCs), IMR90 cells. Put plainly: Senolytic activity: killing senescent (irradiated) IMR90 fibroblasts, CellTiter-Glo. The class given is cell-based, human. Conditions: for pEC50: killing senescent (irradiated) fibroblasts in culture, read-out: Best SnCs EC50; for senolytic potency (EC50), in words: killing senescent cells; for SI (specificity for senescent cells): senescent vs non-senescent cells of the same tissue type. From the text:
Human fibroblast IMR90 cells can be obtained from the American Type Culture Collection (ATCC®) with the designation CCL-186. The cells are maintained at <75% confluency in DMEM containing FBS and Pen/Strep in an atmosphere of 3% O2, 10% CO2, and 95% humidity. The cells are divided into three groups: irradiated cells (cultured for 14 days after irradiation prior to use), proliferating normal cells (cultured at low density for one day prior to use), and quiescent cells (cultured at high density for four day prior to use).
On day 0, the irradiated cells are prepared as follows. IMR90 cells are washed, placed in T175 flasks at a density of 50,000 cells per mL, and irradiated at 10-15 Gy. Following irradiation, the cells are plated at […] in 96-well plates. On days 1, 3, 6, 10, and 13, the medium in each well is aspirated and replaced with fresh medium.
On day 10, the quiescent healthy cells are prepared as follows. IMR90 cells are washed, covered with 3 mL of TrypLE trypsin-containing reagent (Thermofisher Scientific, Waltham, Mass.) and cultured for 5 min until the cells have rounded up and begin to detach from the plate. Cells are dispersed, counted, and prepared in medium at a concentration of 50,000 cells per mL. 100 µL of the cells is plated in each well of a 96-well plate. Medium is changed on day 13.
On day 13, the proliferating healthy cell population is prepared as follows. Healthy IMR90 cells are washed, covered with 3 mL of TrypLE and cultured for 5 minutes until the cells have rounded up and begin to detach from the plate. Cells are dispersed, counted, and prepared in medium at a concentration of 25,000 cells per mL. 100 µL of the cells is plated in each well of a 96-well plate.
On day 14, test senolytic agents are combined with the cells as follows. A DMSO dilution series of each test compound is prepared at 200 times the final desired concentration in a 96-well PCR plate. Immediately before use, the DMSO stocks are diluted 1:200 into prewarmed complete medium. Medium is aspirated from the cells in each well, and 100 µL/well of the compound containing medium is added.
The test senolytic agents are cultured with the cells for 6 days, replacing the culture medium with fresh medium and the same compound concentration on day 17. Bcl-2 inhibitors such as those tested in the examples that follow are cultured with the cells for 3 days. The assay system uses the properties of a thermostable luciferase to enable reaction conditions that generate a stable luminescent signal while simultaneously inhibiting endogenous ATPase released during cell lysis. At the end of the culture period, 100 µL of CellTiter-Glo@ reagent (Promega Corp., Madison, Wis.) is added to each of the wells. The cell plates are placed for 30 seconds on an orbital shaker, and luminescence is measured.
Furthermore, even if the compound is potent, it would not be suitable for use as a therapeutic unless it preferentially kills senescent cells with a high degree of selectivity. Accordingly, compounds in the library showing high Bcl binding affinity were further screened for their ability to kill irradiated fibroblasts, in comparison with replicating fibroblasts or fibroblasts that were quiescent (due to confluence) but not senescent.
For orientation: ATP-based viability assays read luminescence as a measure of living cells.

A further experiment has as its target T1, Bcl-w (Homo sapiens, UniProt Q92843).
T1 construct: purchased Sigma-Aldrich Co., St. Louis, Mo
T1 sequence (Q92843 1-193): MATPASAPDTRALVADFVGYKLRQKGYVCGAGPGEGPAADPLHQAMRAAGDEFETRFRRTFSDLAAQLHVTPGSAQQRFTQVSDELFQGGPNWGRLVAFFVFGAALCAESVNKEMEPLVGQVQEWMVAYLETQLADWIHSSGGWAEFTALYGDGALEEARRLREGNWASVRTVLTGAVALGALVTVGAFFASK
Description: Bcl inhibition homogeneous (AlphaScreen) binding assay, Bcl-w. Conditions: read-out: Binding Affinities (Ki ± SD) Bcl-w. The source says:
(§1) This assay uses a homogenous assay technology based on oxygen channeling that is marketed by PerkinElmer Inc., Waltham, Mass.: see Eglen et al., Current Chemical Genomics, 2008, 1, 2-10. The test compound is combined with the target Bcl protein and a peptide representing the corresponding cognate ligand, labeled with biotin. The mixture is then combined with streptavidin bearing luminescent donor beads and luminescent acceptor beads, which proportionally reduces luminescence if the compound has inhibited the peptide from binding to the Bcl protein.
(§2) Bcl-2, Bcl-xL and Bcl-W are available from Sigma-Aldrich Co., St. Louis, Mo. Biotinylated BIM peptide (ligand for Bcl-2) and BAD peptide (ligand for Bcl-xL) are described in pre-grant publication US 2016/0038503 A1. AlphaScreen® Streptavidin donor beads and Anti-6×His AlphaLISA® acceptor beads are available from PerkinElmer.
(§3) To conduct the assay, a 1:4 dilution series of the compound is prepared in DMSO, and then diluted in assay buffer. In a 96-well PCR plate, the following are combined: 10 μL peptide, 10 μL test compound, and 10 μL BCL protein. The assay plate is incubated in the dark at room temperature for 24 h. The next day, donor beads and acceptor beads are combined, and […] is added to each well. After incubating in the dark for 30 minute, luminescence is measured using a plate reader, and the affinity or degree of inhibition by each test compound is determined.
(§4) The chosen compounds were further assayed to quantitatively determine the actual affinity for Bcl-xL, Bcl-2, and Bcl-w with a view to identifying candidate senolytic agents for use in treating age related conditions. FIGS. 2A, 2B, and 2C show the results of the binding assay, with those compounds towards the left of each graph having the highest affinity.
A general note: In Alpha technology, singlet oxygen from a donor bead excites a nearby acceptor bead.

A further experiment deals with Bcl isoforms. Put plainly: Binding affinity for the Bcl isoforms. Conditions: Bcl-xL, Bcl-2, Bcl-w.
From the text: as §1, §2, §3, §4

The next experiment deals with T2, Bcl-2 (Homo sapiens, UniProt P10415).
T2 construct: purchased Sigma-Aldrich Co., St. Louis, Mo
T2 sequence (P10415 whole entry, species assumed): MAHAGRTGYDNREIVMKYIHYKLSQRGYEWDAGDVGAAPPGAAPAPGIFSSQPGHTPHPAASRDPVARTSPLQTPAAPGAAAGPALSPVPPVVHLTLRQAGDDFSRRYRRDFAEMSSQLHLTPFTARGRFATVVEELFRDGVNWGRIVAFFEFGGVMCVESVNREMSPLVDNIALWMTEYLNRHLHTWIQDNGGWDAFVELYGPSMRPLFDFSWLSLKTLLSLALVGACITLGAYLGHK
Description: Bcl inhibition homogeneous (AlphaScreen) binding assay, Bcl-2. Conditions: read-out: Binding Affinities (Ki ± SD) Bcl-2.
From the text: as §1, §2, §3, §4

In another experiment the target is T3, Bcl-xL (Homo sapiens, UniProt Q07817).
T3 construct: purchased Sigma-Aldrich Co., St. Louis, Mo
T3 sequence (Q07817 whole entry, species assumed): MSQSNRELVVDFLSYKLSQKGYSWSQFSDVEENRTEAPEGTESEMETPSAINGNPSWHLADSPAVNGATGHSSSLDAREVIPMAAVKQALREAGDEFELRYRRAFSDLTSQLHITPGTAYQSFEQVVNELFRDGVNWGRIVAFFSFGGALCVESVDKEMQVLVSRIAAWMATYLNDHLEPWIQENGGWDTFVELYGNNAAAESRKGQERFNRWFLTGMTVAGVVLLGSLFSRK
Description: Bcl inhibition homogeneous (AlphaScreen) binding assay, Bcl-xL. To be noted: read-out: Binding Affinities (Ki ± SD) Bcl-xL.
From the text: as §1, §2, §3, §4

Each structure is given as a SMILES string. pEC50, pKi: −log10 of the molar value.

What is called pEC50 is the EC50 on a negative log10 scale, so that one unit is a factor of ten. The term pKi denotes the negative decadic logarithm of the Ki, by convention in mol/L. Regarding `Cc1c(S(C)(=O)=O)c(-c2cc(F)cc(N3CCN(c4ccc(NS(=O)(=O)c5ccc(N[C@H](CCN6CCC(O)CC6)CSc6ccccc6)c(S(=O)(=O)C(F)(F)F)c5)cc4)CC3)c2)c(-c2ccc(F)cc2)n1C(C)C` [BM-1195], the pEC50 in experiment [1] was 8.22. For the same molecule, the “senolytic potency (EC50), in words” value in experiment [1] was “potent in the nanomole range”. Besides, the “SI (specificity for senescent cells)” value in experiment [1] was found to be 128.7. Besides, the results for the pKi at Bcl-w, on Bcl-2 and on Bcl-xL were 9.76, 9.18 and 9.83, respectively. The “binding affinities (Ki) for the Bcl isoforms, in words” value (“binding affinities (Ki)” for short) at Bcl isoforms is “nanomole to picomole range”.
For `Cc1c(S(C)(=O)=O)c(-c2cc(F)cc(N3CCN(c4ccc(NS(=O)(=O)c5ccc(N[C@H](CCN6CCC(O)CC6)CSc6ccccc6)c(S(=O)(=O)C(F)(F)F)c5)cc4)CC3)c2)c(-c2ccc(Cl)cc2)n1C(C)C` [BM-1197], in experiment [1], the pEC50 was 8.30; the “senolytic potency (EC50), in words” value is listed as “potent in the nanomole range”; the “SI (specificity for senescent cells)” value is 366.7. At Bcl-w, the pKi was 9.54. On Bcl isoforms, the “binding affinities (Ki)” value was “nanomole to picomole range”. Also, the pKi at Bcl-2 was 9.35. Besides, the negative logarithm of the Ki (pKi) on Bcl-xL is 9.53.
For the molecule `Cc1c(C(=O)O)c(-c2cccc(N3CCN(c4ccc(NS(=O)(=O)c5ccc(N[C@H](CCN6CCC(O)CC6)CSc6ccccc6)c(S(=O)(=O)C(F)(F)F)c5)cc4)CC3)c2)c(-c2ccc(Cl)cc2)n1C(C)C` [BM-962], in experiment [1], the negative logarithm of the EC50 (pEC50) was 6.70. In addition, the “SI (specificity for senescent cells)” value in experiment [1] was found to be 18.5. Moreover, the negative-log Ki (pKi) at Bcl-w is 9.27; at Bcl-2 it was 8.47; at Bcl-xL, 10.24.
Taken in the same sequence, the figures for `CCn1c(C)c(C(=O)O)c(-c2cccc(N3CCN(c4ccc(NS(=O)(=O)c5ccc(N[C@H](CCN6CCC(O)CC6)CSc6ccccc6)c(S(=O)(=O)C(F)(F)F)c5)cc4)CC3)c2)c1-c1ccc(Cl)cc1` [BM-957] were 6.52, 11.7, 9.18, 8.48 and 10.34.
As to `CCn1c(C)c(C(=O)NS(C)(=O)=O)c(-c2cccc(N3CCN(c4ccc(NS(=O)(=O)c5ccc(N[C@H](CCN(C)C)CSc6ccccc6)c([N+](=O)[O-])c5)cc4)CC3)c2)c1-c1ccc(Cl)cc1` [BM-1075], the negative logarithm of the EC50 (pEC50) in experiment [1] was 6.52. The “SI (specificity for senescent cells)” value in experiment [1] was found to be 15.3. In addition, the negative logarithm of the Ki (pKi) at Bcl-w was 9.79; at Bcl-2, 9.75; at Bcl-xL, 11.24. Besides, the “binding affinities (Ki)” value on Bcl isoforms is “nanomole to picomole range”.
Take `Cc1c(S(C)(=O)=O)c(-c2cc(F)cc(N3CCN(c4ccc(NS(=O)(=O)c5ccc(N[C@H](CCN6CCC(C(=O)O)CC6)CSc6ccccc6)c(S(=O)(=O)C(F)(F)F)c5)cc4)CC3)c2)c(-c2ccc(Cl)cc2)n1C(C)C` [BM-1244]: the pEC50 in experiment [1] was 6.52. The “SI (specificity for senescent cells)” value in experiment [1] turned out to be 66.7. In addition, the pKi is 9.45 on Bcl-w, 9.35 on Bcl-2 and 9.87 on Bcl-xL. At Bcl isoforms, the “binding affinities (Ki)” value is reported as “nanomole to picomole range”.
Regarding `CCn1c(C)c(S(C)(=O)=O)c(-c2cc(F)cc(N3CCN(c4ccc(NS(=O)(=O)c5ccc(N[C@H](CCN6CCC(O)CC6)CSc6ccccc6)c(S(=O)(=O)C(F)(F)F)c5)cc4)CC3)c2)c1-c1ccc(F)cc1` [BM-1192], in experiment [1], the negative logarithm of the EC50 (pEC50) is 7.30 and the “SI (specificity for senescent cells)” value is reported as 60.0.

The values are drawn from patent US20200338094A1, “Use of a Heterocyclic Bcl-xL Inhibitor and Related Analogs for Removing Senescent Cells in the Treatment of Eye Diseases and Other Age-Related Conditions” (Unity Biotechnology, Inc., priority 2015, published 2020).
